SMILES strings stand for the structures. pIC50, pKi: −log10 of the molar value. Several values for one entry are separate records, joined by “and”; a condition that tells them apart may be missing. Equal entries are not always repeated.

The pKi is the Ki on a negative log10 scale, so that one unit is a factor of ten. A word on the pIC50: it is the IC50 on a negative log10 scale, so that one unit is a factor of ten.

The target in test [1] is T1, Human immunodeficiency virus type 1 protease (Human immunodeficiency virus 1, UniProt Q72874). Briefly: Binding affinity for HIV-1 protease expressed in Escherichia coli upon incubation in pH 5.5 buffer containing Abz-Thr-Ile-p-nitrophenylalanine-Phe-Gln-Arg-NH2.
Test [2] concerns the target T1, Human immunodeficiency virus type 1 protease. Briefly: Inhibitory concentration against HIV-1 protease expressed in Escherichia coli upon incubation in pH 5.5 buffer containing Abz-Thr-Ile-p-nitrophenylalanine-Phe-Gln-Arg-NH2.
A further test deals with Cathepsin D (Homo sapiens, UniProt P07339). Briefly: Binding affinity af the compound towards cathepsin D.

Take `Cc1cccc(C)c1OCC(=O)N[C@H](Cc1cccc(Br)c1)[C@@H](O)C[C@@H](CC(C)C)S(=O)(=O)c1ccc(F)cc1`: the pKi in test [1] was 5.85. In addition, the pIC50 in test [2] was 5.70.
In test [1], `O=C(N[C@H](Cc1cccc(Br)c1)[C@@H](O)C[C@@H](CCc1ccc(Cl)cc1Cl)S(=O)(=O)c1ccc(F)cc1)[C@H]1CCCO1` had a pKi of less than 4.40. Besides, in test [2], the negative logarithm of the IC50 (pIC50) is less than 4.40.
With `O=C(N[C@@H](Cc1cccc(Br)c1)[C@H](O)C[C@H](CCc1ccc(Cl)cc1Cl)S(=O)(=O)c1ccc(F)cc1)[C@H]1CCCO1`, in test [1], the pKi is 5.41 and 5.54.
As to `Cc1cccc(C)c1OCC(=O)N[C@@H](Cc1cccc(Br)c1)[C@H](O)C[C@H](CC(C)C)S(=O)(=O)c1ccc(F)cc1`, in test [1], the pKi was 7.10 and 7.35. In addition, the pIC50 in test [2] was 6.85 and 7.07.
In turn, `CC(C)CCS(=O)(=O)[C@@H](C)C[C@@H](O)[C@H](Cc1cccc(Br)c1)NC(=O)CCS(C)(=O)=O` gave a pKi in test [1] of less than 4.40. Besides, in test [2], the pIC50 was less than 4.40.
`COc1cc(Br)c(C(=O)N[C@@H](Cc2cccc(Br)c2)[C@H](O)C[C@H](CCc2ccc(Cl)cc2Cl)S(=O)(=O)c2ccc(F)cc2)cc1OC`: the negative-log Ki (pKi) in test [1] is 5.51. The pIC50 in test [2] is 5.35.
On the same counts, the results for `CNc1ccc(S(=O)(=O)[C@@H](CC(C)C)C[C@@H](O)[C@H](Cc2cccc(Br)c2)NC(=O)COc2c(C)cccc2C)cc1` are 6.43 and 6.28.
With `Cc1cccc(C)c1OCC(=O)N[C@@H](Cc1cccc(Br)c1)[C@H](O)C[C@H](CC(C)C)S(=O)(=O)c1ccc(N(C)C)cc1`, in test [1], the pKi was 6.27. Also, the pIC50 in test [2] was 6.10.
Taken in the same sequence, the figures for `O=C(COc1ccc(Cl)cc1Cl)N[C@@H](Cc1cccc(Br)c1)[C@H](O)C[C@H](CCc1ccc(Cl)cc1Cl)S(=O)(=O)c1ccc(F)cc1` were 5.15 and 5.00.
On Cathepsin D, `COc1cc(Br)c(C(=O)N[C@@H](Cc2cccc(Oc3ccccc3)c2)[C@@H](O)CN(CCc2ccc(Cl)cc2Cl)C(=O)CCN2C(=O)c3ccccc3C2=O)cc1OC` had a pKi of 10.15.
Compound `CC(C)CN(C[C@@H](O)[C@H](Cc1ccccc1)NC(=O)O[C@H]1CCOC1)S(=O)(=O)c1ccc(N)cc1` [AMPRENAVIR] gave a pKi in test [1] of 10.22.

These data come from ChEMBL document CHEMBL1141123, “Hydroxyethylene sulfones as a new scaffold to address aspartic proteases: design, synthesis, and structural characterization” (J Med Chem, 2005).
